Counter-ions that a name gives are not always drawn.
Assay: Storage stability of Vilazodone HCl polymorphic forms
Assay type: physicochemical
Settings: for storage stability: at accelerated condition (tables 3 & 4)
[1] = Stability at 40 ± 2° C. & 75 ± 5% RH, Final
[2] = Stability at 40 ± 2° C. & 75 ± 5% RH, Final, hydrochloride
[3] = Stability at 40 ± 2° C. & 75 ± 5% RH, Initial, hydrochloride
[4] = Stability at 60 ± 2° C., Final, hydrochloride
[5] = Stability at 60 ± 2° C., Initial, hydrochloride

In the case of `N#Cc1ccc2[nH]cc(CCCCN3CCN(c4ccc5oc(C(N)=O)cc5c4)CC3)c2c1` [Form A, 1-[4-(5-cyanoindol-3-yl)butyl]-4-(2-carbamoylbenzofuran-5-yl) piperazine hydrochloride], the Description [1] is reported as “white to off”, the Purity [1] is reported as 99.60% and the Moisture content [2] is reported as 1.29%. The Moisture content [3] was 1.10%, the Purity [3] was 99.65% and the Description (Stability at 60 ± 2° C., Final) was “white to off”. The Moisture content [4] was 0.76%, the Purity [4] was 99.65% and the Moisture content [5] was 1.10%. For the same molecule, the Purity [5] was 99.65% and the storage stability was “good storage stability”.

With `N#Cc1ccc2[nH]cc(CCCCN3CCN(c4ccc5oc(C(N)=O)cc5c4)CC3)c2c1` [Form B, 1-[4-(5-cyanoindol-3-yl)butyl]-4-(2-carbamoylbenzofuran-5-yl) piperazine hydrochloride] the Description [1] was “white to off”, the Purity [1] was 99.60% and the Moisture content [2] was 1.91%. The Description [3] was “white to off”, the Moisture content [3] was 2.06% and the Purity [3] was 99.62%. The Description (Stability at 60 ± 2° C., Final) was “white to off”, the Moisture content [4] was 0.81% and the Purity [4] was 99.60%. The Description [5] was “white to off”, the Moisture content [5] was 2.06% and the Purity [5] was 99.62%. The storage stability was “good storage stability”.

From patent publication US20140303185A1, “NOVEL POLYMORPHS OF VILAZODONE HYDROCHLORIDE” (ORCHID CHEMICALS & PHARMACEUTICALS LIMITED, priority 2013, published 2014)
